The conditions of series [1]: 60 mg QD NHL cohort, n = 1/18.
The subject of series [2] is gene expression (Hallmark gene sets). The series is described as follows: RNA-seq differential expression and GSEA in bone marrow aspirates. Type of series: in vivo, human.

In the case of `CCNC(=O)C[C@@H]1N=C(c2ccc(Cl)cc2)c2cc(OC)ccc2-n2c(C)nnc21` [molibresib], the “DLT: thrombocytopenia” value in series [1] is given as 6%. In series [2] (across all 13 patients), the “share of differentially expressed genes downregulated (289/398)” value was determined as 72.6%. Also, the “differentially expressed genes shared between NRs and responders” value in series [2] (in vivo) was found to be 61 genes. The “genes with significant differential expression” value in series [2] (non-responders (NR)) turned out to be 884 genes; in series [2] (responders (CR + PR)) it was 107 genes.
